{"source": "paper PMC3639963", "about": "“A New Class of Small Molecule Inhibitor of BMP Signaling” (PLoS ONE, 2013)", "experiment_in_all_cases": "Nanosyn kinase profiling", "type_in_all_cases": "biochemical", "details_in_all_cases": "read-out: Percentage inhibition; for inhibition at 0.1 µM: 0.1 µM inhibitor; for inhibition at 1 µM: 1 µM inhibitor", "key": {"GRK7": {"molecular_target": "T1, GRK7 (Homo sapiens, UniProt Q8WTQ7)", "T1 construct": "purchased Nanosyn (enzymatic panel); SGC in-house recombinant human kinases (DSF panel); Invitrogen (ALK1-6)", "T1 sequence (Q8WTQ7 1-553)": "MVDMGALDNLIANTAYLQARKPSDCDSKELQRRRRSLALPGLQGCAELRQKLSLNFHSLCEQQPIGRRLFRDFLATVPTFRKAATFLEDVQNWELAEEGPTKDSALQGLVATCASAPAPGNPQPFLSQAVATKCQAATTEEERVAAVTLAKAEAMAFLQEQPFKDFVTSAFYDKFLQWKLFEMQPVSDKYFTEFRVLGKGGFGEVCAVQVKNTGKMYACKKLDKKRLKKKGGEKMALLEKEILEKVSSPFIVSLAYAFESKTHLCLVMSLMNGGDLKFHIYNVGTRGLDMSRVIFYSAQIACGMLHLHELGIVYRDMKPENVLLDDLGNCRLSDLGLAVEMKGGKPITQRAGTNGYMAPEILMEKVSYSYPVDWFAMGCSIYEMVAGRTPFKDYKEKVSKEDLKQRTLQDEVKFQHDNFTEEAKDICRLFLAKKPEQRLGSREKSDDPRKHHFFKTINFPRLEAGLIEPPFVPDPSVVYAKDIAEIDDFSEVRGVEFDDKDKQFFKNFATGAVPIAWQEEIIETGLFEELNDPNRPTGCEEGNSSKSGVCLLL", "outline": "(§1)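 Percent inhibition of each kinase was measured with the inhibitor at 0.1 µM and at 1 µM, as part of a 200-kinase human selectivity panel.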"}, "p38δ": {"molecular_target": "T2, p38δ (Homo sapiens, UniProt O15264)", "T2 construct": "purchased Nanosyn (enzymatic panel); SGC in-house recombinant human kinases (DSF panel); Invitrogen (ALK1-6)", "T2 sequence (O15264 1-365)": "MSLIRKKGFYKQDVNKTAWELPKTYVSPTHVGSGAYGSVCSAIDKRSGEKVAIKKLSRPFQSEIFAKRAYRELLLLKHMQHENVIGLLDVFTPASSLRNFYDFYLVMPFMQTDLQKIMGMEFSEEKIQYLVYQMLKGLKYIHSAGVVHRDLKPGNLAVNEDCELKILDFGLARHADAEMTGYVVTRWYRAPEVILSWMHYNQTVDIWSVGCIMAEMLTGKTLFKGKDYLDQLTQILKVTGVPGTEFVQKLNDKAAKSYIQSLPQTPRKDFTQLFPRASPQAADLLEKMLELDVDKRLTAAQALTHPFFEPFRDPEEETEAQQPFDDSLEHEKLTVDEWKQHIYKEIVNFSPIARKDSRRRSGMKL", "outline": "as §1"}, "HCK": {"molecular_target": "T3, HCK (Homo sapiens, UniProt P08631)", "T3 construct": "purchased Nanosyn (enzymatic panel); SGC in-house recombinant human kinases (DSF panel); Invitrogen (ALK1-6)", "T3 sequence (P08631 whole entry)": "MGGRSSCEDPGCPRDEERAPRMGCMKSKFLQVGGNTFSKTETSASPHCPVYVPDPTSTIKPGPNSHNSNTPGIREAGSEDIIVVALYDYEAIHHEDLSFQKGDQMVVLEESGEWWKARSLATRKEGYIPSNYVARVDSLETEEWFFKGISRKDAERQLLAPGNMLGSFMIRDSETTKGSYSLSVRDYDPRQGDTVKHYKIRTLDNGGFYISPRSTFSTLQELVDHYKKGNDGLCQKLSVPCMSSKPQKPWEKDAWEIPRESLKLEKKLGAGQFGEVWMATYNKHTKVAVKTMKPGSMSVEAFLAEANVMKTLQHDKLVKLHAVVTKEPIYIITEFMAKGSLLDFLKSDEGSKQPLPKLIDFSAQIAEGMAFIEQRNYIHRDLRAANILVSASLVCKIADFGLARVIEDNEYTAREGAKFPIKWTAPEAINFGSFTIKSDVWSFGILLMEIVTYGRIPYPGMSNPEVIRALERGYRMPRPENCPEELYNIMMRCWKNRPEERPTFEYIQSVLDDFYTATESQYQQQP", "outline": "as §1"}, "CAMK1δ": {"molecular_target": "T4, CAMK1δ (Homo sapiens, UniProt Q8IU85)", "T4 construct": "purchased Nanosyn (enzymatic panel); SGC in-house recombinant human kinases (DSF panel); Invitrogen (ALK1-6)", "T4 sequence (Q8IU85 whole entry)": "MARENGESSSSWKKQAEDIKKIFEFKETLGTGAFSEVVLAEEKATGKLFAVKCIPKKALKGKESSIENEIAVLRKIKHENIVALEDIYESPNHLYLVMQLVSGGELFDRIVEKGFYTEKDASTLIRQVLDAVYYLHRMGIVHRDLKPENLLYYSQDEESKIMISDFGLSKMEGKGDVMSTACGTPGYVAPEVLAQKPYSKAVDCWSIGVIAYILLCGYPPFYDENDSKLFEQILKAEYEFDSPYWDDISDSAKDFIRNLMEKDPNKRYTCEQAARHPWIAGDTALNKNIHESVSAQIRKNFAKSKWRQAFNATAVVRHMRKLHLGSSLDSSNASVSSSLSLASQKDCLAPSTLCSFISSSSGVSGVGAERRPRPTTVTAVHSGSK", "outline": "as §1"}, "PKCγ": {"molecular_target": "T5, PKCγ (Homo sapiens, UniProt P05129)", "T5 construct": "purchased Nanosyn (enzymatic panel); SGC in-house recombinant human kinases (DSF panel); Invitrogen (ALK1-6)", "outline": "as §1"}, "ROCK1": {"molecular_target": "T6, ROCK1 (Homo sapiens, UniProt Q13464)", "T6 construct": "purchased Nanosyn (enzymatic panel); SGC in-house recombinant human kinases (DSF panel); Invitrogen (ALK1-6)", "T6 sequence (Q13464 whole entry)": "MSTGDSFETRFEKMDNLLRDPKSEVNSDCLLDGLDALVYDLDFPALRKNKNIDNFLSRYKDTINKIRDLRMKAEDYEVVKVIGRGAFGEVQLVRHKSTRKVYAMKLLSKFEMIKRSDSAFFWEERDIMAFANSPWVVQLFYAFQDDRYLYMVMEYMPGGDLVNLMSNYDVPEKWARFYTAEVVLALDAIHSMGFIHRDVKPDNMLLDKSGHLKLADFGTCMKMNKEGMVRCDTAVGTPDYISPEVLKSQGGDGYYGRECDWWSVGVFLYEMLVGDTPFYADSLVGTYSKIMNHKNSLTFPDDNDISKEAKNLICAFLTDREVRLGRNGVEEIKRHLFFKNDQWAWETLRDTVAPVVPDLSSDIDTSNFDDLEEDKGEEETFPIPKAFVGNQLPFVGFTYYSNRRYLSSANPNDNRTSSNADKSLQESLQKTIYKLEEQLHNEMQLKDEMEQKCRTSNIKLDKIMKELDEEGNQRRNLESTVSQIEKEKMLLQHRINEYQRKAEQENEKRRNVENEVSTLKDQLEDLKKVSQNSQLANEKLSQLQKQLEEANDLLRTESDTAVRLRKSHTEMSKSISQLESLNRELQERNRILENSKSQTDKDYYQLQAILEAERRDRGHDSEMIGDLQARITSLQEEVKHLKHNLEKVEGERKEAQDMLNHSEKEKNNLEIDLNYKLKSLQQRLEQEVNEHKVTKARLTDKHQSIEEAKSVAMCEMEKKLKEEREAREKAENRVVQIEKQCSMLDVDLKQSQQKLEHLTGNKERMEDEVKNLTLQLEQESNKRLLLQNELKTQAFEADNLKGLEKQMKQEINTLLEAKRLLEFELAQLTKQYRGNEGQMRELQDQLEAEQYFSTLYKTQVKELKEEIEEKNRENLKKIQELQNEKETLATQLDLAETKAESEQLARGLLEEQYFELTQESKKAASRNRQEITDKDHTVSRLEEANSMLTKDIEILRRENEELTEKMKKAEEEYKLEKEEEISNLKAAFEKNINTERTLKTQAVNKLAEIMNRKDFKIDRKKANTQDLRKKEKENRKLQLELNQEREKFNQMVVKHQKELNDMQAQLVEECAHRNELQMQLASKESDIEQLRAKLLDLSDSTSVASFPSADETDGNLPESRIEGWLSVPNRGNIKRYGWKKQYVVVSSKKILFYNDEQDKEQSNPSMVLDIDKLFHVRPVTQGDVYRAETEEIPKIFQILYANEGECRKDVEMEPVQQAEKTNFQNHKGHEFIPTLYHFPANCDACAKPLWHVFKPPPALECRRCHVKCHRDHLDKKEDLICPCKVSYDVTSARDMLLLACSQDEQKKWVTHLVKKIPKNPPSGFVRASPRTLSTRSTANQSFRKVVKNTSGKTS", "outline": "as §1"}, "TRKB": {"molecular_target": "T7, TRKB (Homo sapiens, UniProt Q16620)", "T7 construct": "purchased Nanosyn (enzymatic panel); SGC in-house recombinant human kinases (DSF panel); Invitrogen (ALK1-6)", "outline": "as §1"}, "ALK": {"molecular_target": "T8, ALK (Homo sapiens, UniProt Q9UM73)", "T8 construct": "purchased Nanosyn (enzymatic panel); SGC in-house recombinant human kinases (DSF panel); Invitrogen (ALK1-6)", "T8 sequence (Q9UM73 19-1620)": "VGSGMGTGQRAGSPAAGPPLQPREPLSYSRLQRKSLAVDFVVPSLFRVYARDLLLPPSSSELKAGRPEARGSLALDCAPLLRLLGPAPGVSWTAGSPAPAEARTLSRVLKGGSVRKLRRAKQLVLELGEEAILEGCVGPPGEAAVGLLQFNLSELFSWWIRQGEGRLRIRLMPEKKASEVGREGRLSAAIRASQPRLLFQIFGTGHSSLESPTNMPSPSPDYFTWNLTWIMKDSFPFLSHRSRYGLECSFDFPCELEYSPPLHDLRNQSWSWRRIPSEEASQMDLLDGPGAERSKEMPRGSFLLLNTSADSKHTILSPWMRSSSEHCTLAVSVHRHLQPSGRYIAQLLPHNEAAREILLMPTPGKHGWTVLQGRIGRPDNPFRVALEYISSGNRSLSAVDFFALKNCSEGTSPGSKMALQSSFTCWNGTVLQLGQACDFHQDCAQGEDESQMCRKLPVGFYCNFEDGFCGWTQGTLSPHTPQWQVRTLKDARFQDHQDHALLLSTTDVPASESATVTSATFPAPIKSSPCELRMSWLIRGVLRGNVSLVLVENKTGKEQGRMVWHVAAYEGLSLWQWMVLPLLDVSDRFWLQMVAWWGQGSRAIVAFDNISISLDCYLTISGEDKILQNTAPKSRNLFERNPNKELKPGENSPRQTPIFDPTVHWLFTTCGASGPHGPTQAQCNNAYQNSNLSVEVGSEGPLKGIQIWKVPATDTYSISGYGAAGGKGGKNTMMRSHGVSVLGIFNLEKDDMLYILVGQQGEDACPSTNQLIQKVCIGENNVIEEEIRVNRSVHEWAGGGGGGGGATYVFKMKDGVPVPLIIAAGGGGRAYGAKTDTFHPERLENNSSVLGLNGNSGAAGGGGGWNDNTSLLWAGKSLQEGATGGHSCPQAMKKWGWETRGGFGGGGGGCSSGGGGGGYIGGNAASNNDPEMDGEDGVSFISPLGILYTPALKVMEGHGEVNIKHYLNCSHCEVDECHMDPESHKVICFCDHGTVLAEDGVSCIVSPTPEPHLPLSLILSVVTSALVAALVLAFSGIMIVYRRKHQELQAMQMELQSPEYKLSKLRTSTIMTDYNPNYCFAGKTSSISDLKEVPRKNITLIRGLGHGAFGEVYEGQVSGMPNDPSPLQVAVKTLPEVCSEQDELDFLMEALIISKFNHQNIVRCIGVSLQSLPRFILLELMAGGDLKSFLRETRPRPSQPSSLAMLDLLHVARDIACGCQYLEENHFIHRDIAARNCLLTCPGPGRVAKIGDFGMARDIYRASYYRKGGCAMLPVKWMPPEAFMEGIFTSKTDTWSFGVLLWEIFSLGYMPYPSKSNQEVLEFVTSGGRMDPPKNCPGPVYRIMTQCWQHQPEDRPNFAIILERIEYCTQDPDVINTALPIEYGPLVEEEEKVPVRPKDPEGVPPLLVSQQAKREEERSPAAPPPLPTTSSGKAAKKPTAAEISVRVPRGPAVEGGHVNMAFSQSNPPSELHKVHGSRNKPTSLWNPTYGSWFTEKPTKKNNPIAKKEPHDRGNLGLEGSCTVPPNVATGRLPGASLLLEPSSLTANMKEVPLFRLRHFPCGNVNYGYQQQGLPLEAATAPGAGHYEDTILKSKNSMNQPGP", "outline": "as §1"}, "CK1γ3": {"molecular_target": "T9, CK1γ3 (Homo sapiens, UniProt Q9Y6M4)", "T9 construct": "purchased Nanosyn (enzymatic panel); SGC in-house recombinant human kinases (DSF panel); Invitrogen (ALK1-6)", "T9 sequence (Q9Y6M4 whole entry)": "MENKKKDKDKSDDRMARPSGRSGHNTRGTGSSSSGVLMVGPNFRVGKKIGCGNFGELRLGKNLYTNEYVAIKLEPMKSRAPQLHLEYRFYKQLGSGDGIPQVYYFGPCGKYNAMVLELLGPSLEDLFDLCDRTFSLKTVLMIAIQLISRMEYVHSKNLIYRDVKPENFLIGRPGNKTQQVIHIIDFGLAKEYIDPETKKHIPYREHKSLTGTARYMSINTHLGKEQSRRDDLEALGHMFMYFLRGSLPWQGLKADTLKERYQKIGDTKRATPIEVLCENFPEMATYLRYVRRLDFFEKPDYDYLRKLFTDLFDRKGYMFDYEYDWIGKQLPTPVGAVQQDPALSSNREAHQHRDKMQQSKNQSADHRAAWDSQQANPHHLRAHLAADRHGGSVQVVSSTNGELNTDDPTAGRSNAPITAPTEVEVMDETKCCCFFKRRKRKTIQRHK", "outline": "as §1"}, "PI3-K-α": {"molecular_target": "T10, PI3-K-α (Homo sapiens, UniProt P42336)", "T10 construct": "purchased Nanosyn (enzymatic panel); SGC in-house recombinant human kinases (DSF panel); Invitrogen (ALK1-6)", "outline": "as §1"}, "MARK4": {"molecular_target": "T11, MARK4 (Homo sapiens, UniProt Q96L34)", "T11 construct": "purchased Nanosyn (enzymatic panel); SGC in-house recombinant human kinases (DSF panel); Invitrogen (ALK1-6)", "T11 sequence (Q96L34 1-752)": "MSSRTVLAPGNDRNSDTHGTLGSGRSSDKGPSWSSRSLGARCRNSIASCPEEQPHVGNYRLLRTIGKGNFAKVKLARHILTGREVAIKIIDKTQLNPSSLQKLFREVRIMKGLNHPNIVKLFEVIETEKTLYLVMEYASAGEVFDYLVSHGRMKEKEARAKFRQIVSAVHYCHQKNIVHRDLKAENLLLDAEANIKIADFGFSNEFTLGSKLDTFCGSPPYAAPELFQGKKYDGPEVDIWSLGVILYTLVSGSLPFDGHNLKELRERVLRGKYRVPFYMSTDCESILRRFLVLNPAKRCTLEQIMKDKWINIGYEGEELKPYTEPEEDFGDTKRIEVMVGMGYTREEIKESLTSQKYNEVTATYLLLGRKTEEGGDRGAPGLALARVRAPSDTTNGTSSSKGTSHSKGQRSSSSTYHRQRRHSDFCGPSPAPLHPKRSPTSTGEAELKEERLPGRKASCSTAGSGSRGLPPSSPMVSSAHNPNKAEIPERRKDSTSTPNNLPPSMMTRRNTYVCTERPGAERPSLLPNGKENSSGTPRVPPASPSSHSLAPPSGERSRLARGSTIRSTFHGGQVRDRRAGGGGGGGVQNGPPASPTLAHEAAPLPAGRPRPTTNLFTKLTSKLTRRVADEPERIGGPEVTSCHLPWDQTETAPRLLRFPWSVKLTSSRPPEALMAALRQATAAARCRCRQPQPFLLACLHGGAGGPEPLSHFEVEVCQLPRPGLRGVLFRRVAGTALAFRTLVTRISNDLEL", "outline": "as §1"}, "RSK1": {"molecular_target": "T12, RSK1 (Homo sapiens, UniProt Q15418)", "T12 construct": "purchased Nanosyn (enzymatic panel); SGC in-house recombinant human kinases (DSF panel); Invitrogen (ALK1-6)", "outline": "as §1"}}, "data": [{"smiles": "COc1cc(-c2cc(-c3cccc(O)c3)cnc2N)cc(OC)c1OC", "note": "[K02288, 3-[6-amino-5-(3,4,5-trimethoxy-phenyl)-pyridin-3-yl]-phenol]", "values": [{"measurement": "inhibition at 0.1 µM", "setting": "GRK7", "result": 0.2, "unit": "%"}, {"measurement": "inhibition at 1 µM", "setting": "GRK7", "result": -3, "unit": "%"}, {"measurement": "inhibition at 0.1 µM", "setting": "p38δ", "result": -3, "unit": "%"}, {"measurement": "inhibition at 1 µM", "setting": "p38δ", "result": -3, "unit": "%"}, {"measurement": "inhibition at 0.1 µM", "setting": "HCK", "result": 8.9, "unit": "%"}, {"measurement": "inhibition at 1 µM", "setting": "HCK", "result": 51, "unit": "%"}, {"measurement": "inhibition at 0.1 µM", "setting": "CAMK1δ", "result": -2, "unit": "%"}, {"measurement": "inhibition at 1 µM", "setting": "CAMK1δ", "result": -1, "unit": "%"}, {"measurement": "inhibition at 0.1 µM", "setting": "PKCγ", "result": -4, "unit": "%"}, {"measurement": "inhibition at 1 µM", "setting": "PKCγ", "result": -1, "unit": "%"}, {"measurement": "inhibition at 0.1 µM", "setting": "ROCK1", "result": 0.5, "unit": "%"}, {"measurement": "inhibition at 1 µM", "setting": "ROCK1", "result": 3.1, "unit": "%"}, {"measurement": "inhibition at 0.1 µM", "setting": "TRKB", "result": 1.8, "unit": "%"}, {"measurement": "inhibition at 1 µM", "setting": "TRKB", "result": 3.9, "unit": "%"}, {"measurement": "inhibition at 0.1 µM", "setting": "ALK", "result": -1, "unit": "%"}, {"measurement": "inhibition at 1 µM", "setting": "ALK", "result": 2.5, "unit": "%"}, {"measurement": "inhibition at 0.1 µM", "setting": "CK1γ3", "result": 2.7, "unit": "%"}, {"measurement": "inhibition at 1 µM", "setting": "CK1γ3", "result": 19, "unit": "%"}, {"measurement": "inhibition at 0.1 µM", "setting": "PI3-K-α", "result": 2.6, "unit": "%"}, {"measurement": "inhibition at 1 µM", "setting": "PI3-K-α", "result": 2, "unit": "%"}, {"measurement": "inhibition at 0.1 µM", "setting": "MARK4", "result": 2.4, "unit": "%"}, {"measurement": "inhibition at 1 µM", "setting": "MARK4", "result": 7.2, "unit": "%"}, {"measurement": "inhibition at 0.1 µM", "setting": "RSK1", "result": 0.8, "unit": "%"}, {"measurement": "inhibition at 1 µM", "setting": "RSK1", "result": 1.8, "unit": "%"}]}, {"smiles": "c1ccc2c(-c3cnn4cc(-c5ccc(N6CCNCC6)cc5)cnc34)ccnc2c1", "note": "[LDN-193189]", "values": [{"measurement": "inhibition at 0.1 µM", "setting": "GRK7", "result": 1.8, "unit": "%"}, {"measurement": "inhibition at 1 µM", "setting": "GRK7", "result": 0.8, "unit": "%"}, {"measurement": "inhibition at 0.1 µM", "setting": "p38δ", "result": 1.8, "unit": "%"}, {"measurement": "inhibition at 1 µM", "setting": "p38δ", "result": 0.5, "unit": "%"}, {"measurement": "inhibition at 0.1 µM", "setting": "HCK", "result": 9.7, "unit": "%"}, {"measurement": "inhibition at 1 µM", "setting": "HCK", "result": 33, "unit": "%"}, {"measurement": "inhibition at 0.1 µM", "setting": "CAMK1δ", "result": 0.8, "unit": "%"}, {"measurement": "inhibition at 1 µM", "setting": "CAMK1δ", "result": 0.9, "unit": "%"}, {"measurement": "inhibition at 0.1 µM", "setting": "PKCγ", "result": 2.1, "unit": "%"}, {"measurement": "inhibition at 1 µM", "setting": "PKCγ", "result": 4.1, "unit": "%"}, {"measurement": "inhibition at 0.1 µM", "setting": "ROCK1", "result": 0, "unit": "%"}, {"measurement": "inhibition at 1 µM", "setting": "ROCK1", "result": 0.7, "unit": "%"}, {"measurement": "inhibition at 0.1 µM", "setting": "TRKB", "result": 0.8, "unit": "%"}, {"measurement": "inhibition at 1 µM", "setting": "TRKB", "result": 3, "unit": "%"}, {"measurement": "inhibition at 0.1 µM", "setting": "ALK", "result": 3.7, "unit": "%"}, {"measurement": "inhibition at 1 µM", "setting": "ALK", "result": 12, "unit": "%"}, {"measurement": "inhibition at 0.1 µM", "setting": "CK1γ3", "result": 2.3, "unit": "%"}, {"measurement": "inhibition at 1 µM", "setting": "CK1γ3", "result": 5.5, "unit": "%"}, {"measurement": "inhibition at 0.1 µM", "setting": "PI3-K-α", "result": 2.1, "unit": "%"}, {"measurement": "inhibition at 1 µM", "setting": "PI3-K-α", "result": 1.5, "unit": "%"}, {"measurement": "inhibition at 0.1 µM", "setting": "MARK4", "result": 13, "unit": "%"}, {"measurement": "inhibition at 1 µM", "setting": "MARK4", "result": 61, "unit": "%"}, {"measurement": "inhibition at 0.1 µM", "setting": "RSK1", "result": 0.6, "unit": "%"}, {"measurement": "inhibition at 1 µM", "setting": "RSK1", "result": 8, "unit": "%"}]}]}
